The values below come from patent publication US20220016101A1 (ACADIA Pharmaceuticals Inc., priority 2018, published 2022).

Molecules are shown by their SMILES. pKi: −log10 of the molar value. Read-outs that look alike come from different tables or passages of the source. Some results are limits rather than exact numbers.

What is called pKi is the Ki on a negative log10 scale, so that one unit is a factor of ten.

The target in data set [1] is alpha1 adrenergic receptor. Put plainly: Receptor profile: affinity (Ki) at α1. It is filed as binding. The note with it: other noteworthy target; data on file.
The target of data set [2] is T1, 5-HT2C (Homo sapiens, UniProt P28335).
T1 sequence (P28335 33-458): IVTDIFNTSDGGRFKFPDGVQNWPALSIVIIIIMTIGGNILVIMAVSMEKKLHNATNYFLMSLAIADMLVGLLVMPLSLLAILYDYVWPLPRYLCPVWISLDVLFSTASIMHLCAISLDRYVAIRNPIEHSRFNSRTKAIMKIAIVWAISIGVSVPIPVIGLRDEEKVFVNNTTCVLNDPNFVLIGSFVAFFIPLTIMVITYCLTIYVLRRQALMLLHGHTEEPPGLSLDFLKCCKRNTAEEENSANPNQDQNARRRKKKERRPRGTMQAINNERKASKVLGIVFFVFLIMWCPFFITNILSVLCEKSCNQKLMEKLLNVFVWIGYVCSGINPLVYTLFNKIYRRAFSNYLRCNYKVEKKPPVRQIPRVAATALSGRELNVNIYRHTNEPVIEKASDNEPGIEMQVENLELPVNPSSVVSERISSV
The note with it: literature sources; read-out: affinity (Ki) 5-HT2C; cited from earlier work.

For data set [3], the target named is alpha2 adrenergic receptor. The note with it: read-out: affinity (Ki) α2; other noteworthy target; literature sources; cited from earlier work.
The next data set concerns the target T2, 5-HT3 (Homo sapiens, UniProt P46098).
T2 sequence (P46098 24-478): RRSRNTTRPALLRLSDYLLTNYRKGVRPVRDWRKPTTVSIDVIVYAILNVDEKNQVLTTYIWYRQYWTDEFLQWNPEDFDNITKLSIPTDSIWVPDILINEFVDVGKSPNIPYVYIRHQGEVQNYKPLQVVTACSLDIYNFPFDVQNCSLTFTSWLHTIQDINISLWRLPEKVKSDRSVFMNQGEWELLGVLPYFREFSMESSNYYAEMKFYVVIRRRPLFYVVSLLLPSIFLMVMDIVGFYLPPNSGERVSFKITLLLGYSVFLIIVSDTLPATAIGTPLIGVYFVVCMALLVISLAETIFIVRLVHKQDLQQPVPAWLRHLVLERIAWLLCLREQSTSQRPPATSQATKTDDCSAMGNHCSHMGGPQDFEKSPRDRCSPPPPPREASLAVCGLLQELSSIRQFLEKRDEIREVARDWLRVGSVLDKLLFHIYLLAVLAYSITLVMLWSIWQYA
As to conditions: other noteworthy target; literature sources; read-out: affinity (Ki) 5-HT3; cited from earlier work.

A further data set addresses T3, D4 (Homo sapiens, UniProt P21917).
T3 sequence (P21917 1-419): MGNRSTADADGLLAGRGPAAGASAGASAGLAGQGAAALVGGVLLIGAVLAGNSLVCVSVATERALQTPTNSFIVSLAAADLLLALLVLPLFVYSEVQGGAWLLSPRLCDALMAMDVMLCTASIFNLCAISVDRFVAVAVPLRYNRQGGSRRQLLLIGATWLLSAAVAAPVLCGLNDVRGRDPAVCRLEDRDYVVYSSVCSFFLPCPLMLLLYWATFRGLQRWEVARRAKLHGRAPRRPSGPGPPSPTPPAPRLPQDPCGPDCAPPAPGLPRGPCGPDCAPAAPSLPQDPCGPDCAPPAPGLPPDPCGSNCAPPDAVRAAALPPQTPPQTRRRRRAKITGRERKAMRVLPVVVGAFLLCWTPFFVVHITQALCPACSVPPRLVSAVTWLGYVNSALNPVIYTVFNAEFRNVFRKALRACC
The note with it: other noteworthy target; literature sources; read-out: affinity (Ki) D4; cited from earlier work.

Another data set deals with patients with MDD. The note with it: Baldwin et al (2013); printed as x to 1; cited from earlier work.
In the next data set the target is serotonin transporter (Homo sapiens, UniProt P31645). Put plainly: Receptor profile: affinity (Ki) at SERT. It is filed as binding. The note with it: data on file.
Chain of serotonin transporter (P31645 whole entry): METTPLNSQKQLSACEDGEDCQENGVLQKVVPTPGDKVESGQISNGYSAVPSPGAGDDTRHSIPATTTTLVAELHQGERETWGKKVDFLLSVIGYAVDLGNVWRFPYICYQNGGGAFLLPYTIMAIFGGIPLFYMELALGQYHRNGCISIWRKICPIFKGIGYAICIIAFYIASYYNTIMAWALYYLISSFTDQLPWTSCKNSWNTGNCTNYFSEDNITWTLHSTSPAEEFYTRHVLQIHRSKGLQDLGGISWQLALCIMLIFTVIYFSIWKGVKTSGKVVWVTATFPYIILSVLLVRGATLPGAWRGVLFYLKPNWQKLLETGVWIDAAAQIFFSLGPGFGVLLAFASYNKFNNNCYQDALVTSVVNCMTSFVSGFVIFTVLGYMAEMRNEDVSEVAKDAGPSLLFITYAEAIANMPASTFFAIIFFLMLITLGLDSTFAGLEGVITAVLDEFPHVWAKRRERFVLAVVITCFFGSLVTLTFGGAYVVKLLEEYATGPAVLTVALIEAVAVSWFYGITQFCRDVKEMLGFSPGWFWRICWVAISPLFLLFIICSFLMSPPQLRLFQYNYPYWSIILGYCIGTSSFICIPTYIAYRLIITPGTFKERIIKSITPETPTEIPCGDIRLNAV
The target in data set [4] is norepinephrine transporter (Homo sapiens, UniProt P23975). Put plainly: Receptor profile: affinity (Ki) at NET. It is filed as binding. The note with it: data on file.
Chain of norepinephrine transporter (P23975 whole entry, species assumed): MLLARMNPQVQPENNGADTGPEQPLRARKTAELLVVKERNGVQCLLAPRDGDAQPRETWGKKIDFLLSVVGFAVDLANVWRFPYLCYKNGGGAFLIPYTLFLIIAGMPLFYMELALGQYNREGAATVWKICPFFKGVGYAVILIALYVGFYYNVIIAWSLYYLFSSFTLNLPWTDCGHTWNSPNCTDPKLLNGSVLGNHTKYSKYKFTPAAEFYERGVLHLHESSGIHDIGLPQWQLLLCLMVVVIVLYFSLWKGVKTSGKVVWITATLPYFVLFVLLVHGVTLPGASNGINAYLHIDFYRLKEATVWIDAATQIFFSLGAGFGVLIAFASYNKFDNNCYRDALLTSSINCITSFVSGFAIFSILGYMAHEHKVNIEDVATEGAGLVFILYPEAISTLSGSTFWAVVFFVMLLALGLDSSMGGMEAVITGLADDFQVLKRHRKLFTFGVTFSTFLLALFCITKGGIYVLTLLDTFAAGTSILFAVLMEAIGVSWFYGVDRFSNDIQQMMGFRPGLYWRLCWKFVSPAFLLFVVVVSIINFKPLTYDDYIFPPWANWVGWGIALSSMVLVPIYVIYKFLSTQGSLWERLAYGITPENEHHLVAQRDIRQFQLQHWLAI
The target of a further data set is dopamine transporter (Homo sapiens, UniProt Q01959). Briefly: Receptor profile: affinity (Ki) at DAT. It is filed as binding. As to conditions: data on file.
Chain of dopamine transporter (Q01959 whole entry): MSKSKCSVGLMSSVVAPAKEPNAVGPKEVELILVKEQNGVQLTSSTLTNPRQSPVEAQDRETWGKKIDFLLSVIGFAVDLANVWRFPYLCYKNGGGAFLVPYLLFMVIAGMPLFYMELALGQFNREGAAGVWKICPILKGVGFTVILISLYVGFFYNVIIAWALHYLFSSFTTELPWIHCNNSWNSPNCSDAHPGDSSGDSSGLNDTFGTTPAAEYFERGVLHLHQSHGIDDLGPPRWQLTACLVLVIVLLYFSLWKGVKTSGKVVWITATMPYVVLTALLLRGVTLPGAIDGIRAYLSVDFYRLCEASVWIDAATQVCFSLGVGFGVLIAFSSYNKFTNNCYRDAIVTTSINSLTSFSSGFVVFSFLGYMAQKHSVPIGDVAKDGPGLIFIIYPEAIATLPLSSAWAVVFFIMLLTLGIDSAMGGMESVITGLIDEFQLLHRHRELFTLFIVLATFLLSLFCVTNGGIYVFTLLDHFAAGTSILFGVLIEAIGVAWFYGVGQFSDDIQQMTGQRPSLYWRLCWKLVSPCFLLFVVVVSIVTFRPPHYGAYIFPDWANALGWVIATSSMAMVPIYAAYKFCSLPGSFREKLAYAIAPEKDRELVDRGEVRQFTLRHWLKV
Data set [5] has as its target T1, 5-HT2C. Briefly: Receptor profile: affinity (Ki) at 5-HT2C. It is filed as binding. As to conditions: data on file.
The target in another data set is 5-HT2A (Homo sapiens, UniProt P28223). Put plainly: Receptor profile: affinity (Ki) at 5-HT2A. It is filed as binding. The note with it: data on file.
Chain of 5-HT2A (P28223 whole entry, species assumed): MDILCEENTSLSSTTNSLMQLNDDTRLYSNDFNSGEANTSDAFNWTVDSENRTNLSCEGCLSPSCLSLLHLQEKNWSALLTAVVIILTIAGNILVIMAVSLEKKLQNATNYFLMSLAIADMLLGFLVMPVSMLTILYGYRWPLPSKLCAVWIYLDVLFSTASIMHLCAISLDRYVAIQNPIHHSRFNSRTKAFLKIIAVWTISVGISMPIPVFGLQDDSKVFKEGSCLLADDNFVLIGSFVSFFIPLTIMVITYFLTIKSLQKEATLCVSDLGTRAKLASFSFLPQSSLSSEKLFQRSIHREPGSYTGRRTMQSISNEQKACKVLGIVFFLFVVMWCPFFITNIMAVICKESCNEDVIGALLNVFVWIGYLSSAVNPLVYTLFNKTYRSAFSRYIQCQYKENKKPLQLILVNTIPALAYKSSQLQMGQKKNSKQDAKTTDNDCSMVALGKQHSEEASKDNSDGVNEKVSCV

As to `O=C(c1ccc(F)cc1)C1CCN(CCn2c(=O)[nH]c3ccccc3c2=O)CC1` [KET, ketanserin], the pKi in [1] was 7.70 to 7.82.
In the case of `CN1CCN2c3ncccc3Cc3ccccc3C2C1` (centres unmarked) [MIRT, mirtazapine], the pKi on 5-HT2C [2] was 7.40; in data set [3] it was 7.70 to 7.82; on 5-HT3 it was 8.00.
With `NC(=O)C1(N2CCCCC2)CCN(CCCC(=O)c2ccc(F)cc2)CC1` [PIP, pipamperone], the results for the pKi (at 5-HT2C [2]; on D4; in data set [3]) were 6.92, 8.30 and 7.46, respectively.
Regarding `COc1ccc(C(CN(C)C)C2(O)CCCCC2)cc1` (centres unmarked) [venlafaxine], the “odds ratio (drug to placebo) for sexual dysfunction” value in the data set with patients with MDD was 24.42.
On to `Cc1nc2sccn2c(=O)c1CCN1CCC(=C(c2ccc(F)cc2)c2ccc(F)cc2)CC1` [RIT, ritanserin], for which the negative-log Ki (pKi) on serotonin transporter is less than 6.00; in [4] it was less than 6.00; at dopamine transporter it was less than 6.00; at 5-HT2C [5], 8.52.
`N#Cc1c[nH]c2c(C(=O)N3CCN(CCc4ccc(F)cc4)CC3)cccc12` [PRUV, pruvanserin]: the negative logarithm of the Ki (pKi) on serotonin transporter was less than 6.00; in data set [4], less than 6.00; on dopamine transporter, less than 6.00; on 5-HT2C [5], less than 6.00; at 5-HT2A, 9.15.
